Experimental data: patent US9939427B2, “Method for evaluating the scent performance of perfumes or perfume mixtures” (Symrise AG, priority 2013, dated 2018)
“Also recorded” adds a separate entry of the source.

Tests used:
Type in all cases: cell-based
[1] = molecular target: T1, OR4X2 (Homo sapiens, UniProt Q8NGF9); assay: Ca-imaging of OR4X2-transfected HEK293 cells; set-up: key to OR4X2 responded to odorant: ▪: 18 olfactory receptors responded to 32 odorants in related with specific anosmia; details: for Response of OR4X2 to odorant, in words: single odorants 200 μM; for Number of cell responses, Experiment (OR4X2): odorant 200 μM, approximately 2000 transfected cells in three times of measuring (Table 4, FIG. 5)
T1 construct: specific primers, which amplify the complete open reading frame; expressed in transfected cells; host or cells: HEK293
T1 sequence (Q8NGF9 1-303): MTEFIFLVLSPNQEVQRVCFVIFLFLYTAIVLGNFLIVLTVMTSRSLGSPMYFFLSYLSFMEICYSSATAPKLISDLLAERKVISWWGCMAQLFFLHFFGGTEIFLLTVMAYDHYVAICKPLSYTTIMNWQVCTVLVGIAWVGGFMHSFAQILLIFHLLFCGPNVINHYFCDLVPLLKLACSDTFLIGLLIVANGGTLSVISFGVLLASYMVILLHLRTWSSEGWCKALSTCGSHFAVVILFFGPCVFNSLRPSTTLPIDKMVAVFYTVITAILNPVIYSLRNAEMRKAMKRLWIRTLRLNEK
Description: (§1) HEK293 cells were cultivated in Petri dishes (Ø35 mm) as previously described (Benbernou et al. 2007). We grow up HEK293 cells in culture medium containing standard DMEM with 10% heat-inactivated fetal bovine serum, 2 mM L-glutamine, 100 units/ml penicillin, and 100 units/ml streptomycin in a humidified atmosphere (37° C., 5% CO2). After 2-3 days, the transfection process was carried out, whereby the cell culture was 70-80% confluent. The calciumphosphate method was applied to transfect DNA plasmid transiently in HEK293 cells in case of Ca-imaging method.
(§2) Calcium cations and phosphate anions created crystal precipitations coupled with DNA which could invade into the cells through endocytosis. Cells were transiently transfected with plasmid DNA which consists of pCI expression vector and PCR-amplified full-length cDNA of olfactory receptors candidates, and also Gα15, RTP1, Myr-Ric8A, HSC70, and m-Cherry as cofactors. The precipitation could be created after 15-20 min, with dropping the transfection solution on HEK293 cells. Before measuring by Ca-imaging cells were incubated 48-60 hours at 370 C, 5% CO2. Cationic liposome-mediated transfection method was applied to transfect DNA plasmid transiently in HANA3A cells in case of CRE-Luciferase and CRE-SEAP assays.
(§3) Calcium imaging of the transfected HEK293 cells was done by using chambers determinate an inverted microscope (Olympus; IX70) using a 10× objective (CPIanFL N Olympus). Fluorescence emission was determined every 4 s by using a CCD camera (Charge Coupled Device, C9100 Hamamatsu). The capillary tube which was responsible to supply odorants was generated closely above the cells. The columns filled with odorants, DMSO and ATP. Odorants were manually monitored to drop each 4-5 s to transfected cells. Solutions with drop wise form spread on HEK293 cells in 35 mm dishes.
(§4) In experiments, Fura-2 Acetoxymethylester (Fura-2/AM) was applied. The non-polar Fura2/AM is fluorescent but not yet calcium-sensitive. Once diffuses into cell plasma, Fura-2/AM is hydrolyzed to Fura-2 which is calcium-sensitive and functions as Ca2+ chelator. Regardless of the presence of calcium, Fura-2 emits at the wavelength of 510 nm. Once Fura-2 binds to free intracellular Ca2+ in cell plasma, its ratio of excitation at wavelengths of 340 nm and 380 nm is changed and correlated to the amount of intracellular Ca2+. According to this feature, the analysis of 340/380 nm excitation ratio for Fura-2 allows to quantify intracellular calcium levels.
(§5) In preparation for Ca-imaging measurements, transfected HEK293 cells were added 3 it Fura2/AM (3 μM) and incubated 30-45 min at 370 C, 5% CO2. After this step, experiments were carried out in a dark condition (Fura-2 is light-sensitive). After the incubation, medium of cell culture was replaced with 2 ml Ringer's solution.
(§6) Odorants were freshly prepared with DMSO as 1 M stocks solutions. Six mixtures (200 μM each chemical) were applied to cells sequentially (20 s each mixture/30 s Ringer). Those ORs tested with single odorants that had generated a response to odorant mixture group previously. Odorants were prepared in 100-200 μM concentration.
(§7) Ringer's solution was used for washing cells between measuring by two different odorants. Positive response was determined by the timing of the response, the strength of the response (more than twofold higher than the noise amplitude of the baseline), and the shape of the response curve (sharp rise in curve with gradual recovery). The typical shape of response curves was established by observing responses to repeated stimulation with 200 μM of odorants. After testing with single odorants at 100 μM, stimulating odorants were often retested at 200 μM concentrations. To confirm the result of every receptor that produced a significant response curves, the experiment was repeated for twelve times. Finally, cells were exposed to ATP (0.25 mM) which could activate P2Y receptor channel and induce Ca2+ influx into cells. […]

[2] = system: HEK293 cells transfected with all cofactors and pCI plasmids without ORs; assay: Ca-imaging of control HEK293 cells without OR; details: odorant 200 μM, three times of measuring (Table 4, FIG. 5)
Description: as §1, §2, §3, §4, §5, §6, §7

[3] = molecular target: T2, OR1B1 (Homo sapiens, UniProt Q8NGR6); assay: Ca-imaging of OR1B1-transfected HEK293 cells; set-up: key to OR1B1 responded to odorant: ▪: 18 olfactory receptors responded to 32 odorants in related with specific anosmia; details: for Number of cell responses, Experiment (OR1B1): odorant 200 μM, approximately 2000 transfected cells in three times of measuring (Table 4, FIG. 5)
T2 construct: specific primers, which amplify the complete open reading frame; expressed in transfected cells; host or cells: HEK293
T2 sequence (Q8NGR6 1-317): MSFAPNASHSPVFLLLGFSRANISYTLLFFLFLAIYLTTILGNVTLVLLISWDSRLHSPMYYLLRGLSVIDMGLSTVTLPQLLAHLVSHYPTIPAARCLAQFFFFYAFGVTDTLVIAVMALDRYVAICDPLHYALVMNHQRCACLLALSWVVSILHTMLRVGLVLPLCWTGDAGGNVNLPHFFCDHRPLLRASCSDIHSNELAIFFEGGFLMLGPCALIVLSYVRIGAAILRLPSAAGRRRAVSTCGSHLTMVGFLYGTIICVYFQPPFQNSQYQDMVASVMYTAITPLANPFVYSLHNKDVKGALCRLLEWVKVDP
Description: as §1, §2, §3, §4, §5, §6, §7

[4] = molecular target: T3, OR10A6 (Homo sapiens, UniProt Q8NH74); assay: Ca-imaging of OR10A6-transfected HEK293 cells; set-up: key to OR10A6 responded to odorant: ▪: 18 olfactory receptors responded to 32 odorants in related with specific anosmia
T3 construct: specific primers, which amplify the complete open reading frame; expressed in transfected cells; host or cells: HEK293
T3 sequence (Q8NH74 1-314): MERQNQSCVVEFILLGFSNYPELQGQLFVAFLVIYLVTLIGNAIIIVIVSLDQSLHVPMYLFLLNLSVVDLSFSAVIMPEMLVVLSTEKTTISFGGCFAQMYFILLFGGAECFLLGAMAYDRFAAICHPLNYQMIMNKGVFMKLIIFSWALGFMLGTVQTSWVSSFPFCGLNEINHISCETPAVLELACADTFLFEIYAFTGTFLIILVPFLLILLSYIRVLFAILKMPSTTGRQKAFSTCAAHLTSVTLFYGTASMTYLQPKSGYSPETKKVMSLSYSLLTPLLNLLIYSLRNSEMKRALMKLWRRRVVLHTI
Description: as §1, §2, §3, §4, §5, §6
Ringer's solution was used for washing cells between measuring by two different odorants. Positive response was determined by the timing of the response, the strength of the response (more than twofold higher than the noise amplitude of the baseline), and the shape of the response curve (sharp rise in curve with gradual recovery). […]

[5] = molecular target: T4, OR8D2 (Homo sapiens, UniProt Q9GZM6); assay: Ca-imaging of OR8D2-transfected HEK293 cells; set-up: key to OR8D2 responded to odorant: ▪: 18 olfactory receptors responded to 32 odorants in related with specific anosmia
T4 construct: specific primers, which amplify the complete open reading frame; expressed in transfected cells; host or cells: HEK293
T4 sequence (Q9GZM6 1-311): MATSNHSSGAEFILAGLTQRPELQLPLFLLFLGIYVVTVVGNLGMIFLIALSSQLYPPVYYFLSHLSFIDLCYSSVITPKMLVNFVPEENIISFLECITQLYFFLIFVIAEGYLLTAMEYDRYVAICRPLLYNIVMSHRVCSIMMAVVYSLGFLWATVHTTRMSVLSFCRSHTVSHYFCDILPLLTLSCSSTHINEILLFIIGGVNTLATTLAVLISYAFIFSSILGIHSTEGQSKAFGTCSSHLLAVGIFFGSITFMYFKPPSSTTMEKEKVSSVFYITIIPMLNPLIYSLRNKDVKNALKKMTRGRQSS
Description: as §1, §2, §3, §4, §5, §6, §7

[6] = molecular target: T5, OR8B4 (Homo sapiens, UniProt Q96RC9); assay: Ca-imaging of OR8B4-transfected HEK293 cells; set-up: key to OR8B4 responded to odorant: ▪: 18 olfactory receptors responded to 32 odorants in related with specific anosmia; details: for OR8B4 responded to odorant / Response of OR8B4 to odorant, in words: Ca-imaging; for OR8B4 responded to odorant: HEK293 cells, individual odorant 200 μM, significant response p<0.05; for Response of OR8B4 to odorant, in words: single odorants 200 μM; for Number of cell responses (OR8B4): odorant 200 μM, approximately 2000 transfected cells in three times of measuring (FIG. 5)
T5 construct: specific primers, which amplify the complete open reading frame; expressed in transfected cells; host or cells: HEK293
T5 sequence (Q96RC9 1-309): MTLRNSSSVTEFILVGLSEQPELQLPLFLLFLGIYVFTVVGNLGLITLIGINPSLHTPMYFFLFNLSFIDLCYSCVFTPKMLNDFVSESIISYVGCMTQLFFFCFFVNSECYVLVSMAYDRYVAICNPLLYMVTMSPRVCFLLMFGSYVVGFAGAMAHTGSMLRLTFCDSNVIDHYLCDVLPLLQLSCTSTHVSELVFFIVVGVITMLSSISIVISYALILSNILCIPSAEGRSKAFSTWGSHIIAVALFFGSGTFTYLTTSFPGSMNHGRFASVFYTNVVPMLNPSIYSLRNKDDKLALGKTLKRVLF
Description: as §1, §2, §3, §4, §5, §6, §7

[7] = Ca-imaging, HEK293 cells, individual odorant 200 μM, significant response p<0.05
[8] = Ca-imaging, single odorants 200 μM

SMILES | Number of cell responses, Experiment (OR4X2) [1] | Number of cell responses, Control [2] | OR8B4 responded to odorant [6] | Response of OR8B4 to odorant, in words [6] | Number of cell responses (OR8B4) [6] | other results
NCC(=O)c1ccccc1 [2-aminoacetophenon, 2-Aminoacetophenone] | 20 |  |  |  |  | OR4X2 responded to odorant [1, 7]: ▪; Response of OR4X2 to odorant, in words ([1]; Ca-imaging): could be the receptor; Response of OR4X2 to odorant, in words ([1]; Ca-imaging, listed as 2-aminoacetophenone): responded
Cc1occc(=O)c1O [3-Hydroxy-2-Methyl-4-Pyran, 3-Hydroxy-2-Methyl-4-Pyran-4-one] |  | 5 |  |  |  | OR1B1 responded to odorant [3, 7]: ▪; Response of OR1B1 to odorant, in words [3, 8]: significantly (P<0.05) activated; Number of cell responses, Experiment (OR1B1) ([3]; listed as 3-Hydroxy-2-methyl-4-pyranone): 35; Number of cell responses, Experiment (OR1B1) ([3]; listed as 3-hydroxy-2-methyl-4-pyrane): 9
CCCCCCO [Alcohol C6] |  |  |  |  |  | OR10A6 responded to odorant ([4]; HEK293 cells, individual odorant 200 μM, significant response p<0.05): ▪; Response of OR10A6 to odorant, in words ([4]; single odorants 200 μM): elicited a response; also recorded: detected; OR8D2 responded to odorant [5, 7]: ▪; Response of OR8D2 to odorant, in words [5, 8]: elicited a response; also recorded: significantly activated; also recorded: detected; Number of cell responses, Experiment (OR8D2) ([5]; odorant 200 μM, approximately 2000 transfected cells in three times of measuring (Table 4, FIG. 5)): 9
CCCCCC=O [Aldehyde C6, Aldehyd C6] | 8 | 0 | ▪ | responded significantly | 8 | 
COc1ccc(C=O)cc1 [Anisic aldehyde, Anisic Aldehyde] | 14 | 0 | ▪ | responded significantly | 14 | 
